Where no end group is shown, it is not given here.
Key:
Assay in all cases: micro-dilution assay (MBC, LD90)
Format in all cases: cell-based
[1] = tested on: Candida parapsilosis ATCC 90018
Procedure, shortened: (§1)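 Overnight BHI cultures are washed twice in 10 mM sodium phosphate, pH 7.2, and set to 10^4 cells/ml. Peptide is added (final 0.0125–100 mg/l) for 2 h at 37° C or, for fungi, 30° C. Survivors are plated overnight; killing is calculated relative to the control.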

[2] = tested on: Acinetobacter johnsonii ATCC 17909
Procedure, shortened: as §1

[3] = tested on: Actinobacillus actinommycetemcomitans NCTC 10979
Procedure, shortened: as §1

[4] = tested on: E. coli (ESBL 3) Va 4425/01 (wild-type)
Procedure, shortened: as §1

[5] = tested on: Enterococcus faecium (VRE) Ulm 68 (wild-type)
Procedure, shortened: as §1

[6] = tested on: Pseudomonas aeruginosa CF 645 (mukoid)(wild-type)
Procedure, shortened: as §1

[7] = tested on: Proteus mirabilis ATCC 9240
Procedure, shortened: as §1

[8] = tested on: Streptococcus pyogenes ATCC 12344
Procedure, shortened: as §1

[9] = tested on: Acinetobacter lwoffii ATCC 15309
Procedure, shortened: as §1

[10] = tested on: Enterobacter cloacae Va 12270/03 (wild-type)
Procedure, shortened: as §1

[11] = tested on: Candida glabrata UR 5836/02 (wild-type)
Procedure, shortened: as §1

[12] = tested on: Streptococcus pneumoniae DSM 11865 (Penr)
Procedure, shortened: as §1

[13] = tested on: Klebsiella pneumoniae (ESBL) CF 2 (wild-type)
Procedure, shortened: as §1

[14] = tested on: Citrobacter freundii BK 2122/00 (wild-type)
Procedure, shortened: as §1

[15] = tested on: Candida albicans C.a 39 (wild-type)
Procedure, shortened: as §1

[16] = tested on: Klebsiella pneumoniae (ESBL) CF 7 (wild-type)
Procedure, shortened: as §1

[17] = tested on: Morganella morganii RV B4/97
Procedure, shortened: as §1

[18] = tested on: Serratia marcescens NCTC 10211
Procedure, shortened: as §1

[19] = tested on: Klebsiella pneumoniae (ESBL) CF 31 (wild-type)
Procedure, shortened: as §1

[20] = tested on: Pseudomonas aeruginosa ATCC 11440
Procedure, shortened: as §1

[21] = tested on: Stenotrophomonas maltophilia ATCC 17666
Procedure, shortened: as §1

[22] = tested on: Serratia marcescens Mero 041/145 (wild-type)
Procedure, shortened: as §1

[23] = tested on: Staphylococcus aureus (MRSA 344) (wild-type)
Procedure, shortened: as §1

[24] = tested on: Cryptococcus neoformans ATCC 62066
Procedure, shortened: as §1

[25] = tested on: Candida albicans ATCC 10231
Procedure, shortened: as §1

[26] = tested on: Candida glabrata ATCC 90030
Procedure, shortened: as §1

Substance: human β-defensin-2 (GIGDPVTCLKSGAICHPVFCPRRYKQIGTCGLPGTKCCKKP; ends and bridges not checked; cysteine pairing not given here) [hβD2, recombinant hβD2]
- LD 90 = μg/ml 90% killing [1]: 12.5 µg/mL
- MBC = μg/ml 99.9% killing [1]: 25 µg/mL
- LD 90 = μg/ml 90% killing [2]: 0.39 µg/mL
- MBC = μg/ml 99.9% killing [2]: 1.56 µg/mL
- LD 90 = μg/ml 90% killing [3]: 100 µg/mL
- MBC = μg/ml 99.9% killing [3]: >100 µg/mL
- LD 90 = μg/ml 90% killing [4]: 6.25 µg/mL
- MBC = μg/ml 99.9% killing [4]: 12.5 µg/mL
- LD 90 = μg/ml 90% killing [5]: 100 µg/mL
- MBC = μg/ml 99.9% killing [5]: >100 µg/mL
- LD 90 = μg/ml 90% killing [6]: 25 µg/mL
- MBC = μg/ml 99.9% killing [6]: 12.5 µg/mL
- LD 90 = μg/ml 90% killing [7]: 100 µg/mL
- MBC = μg/ml 99.9% killing [7]: >100 µg/mL
- LD 90 = μg/ml 90% killing [8]: 100 µg/mL
- MBC = μg/ml 99.9% killing [8]: >100 µg/mL
- LD 90 = μg/ml 90% killing [9]: 0.39 µg/mL
- MBC = μg/ml 99.9% killing [9]: 0.78 µg/mL
- LD 90 = μg/ml 90% killing [10]: 6.25 µg/mL
- MBC = μg/ml 99.9% killing [10]: 12.5 µg/mL
- LD 90 = μg/ml 90% killing [11]: 6.25 µg/mL
- MBC = μg/ml 99.9% killing [11]: 50 µg/mL
- LD 90 = μg/ml 90% killing [12]: 50 µg/mL
- MBC = μg/ml 99.9% killing [12]: 100 µg/mL
- LD 90 = μg/ml 90% killing [13]: 6.25 µg/mL
- MBC = μg/ml 99.9% killing [13]: 25 µg/mL
- LD 90 = μg/ml 90% killing [14]: 6.25 µg/mL
- MBC = μg/ml 99.9% killing [14]: 25 µg/mL
- LD 90 = μg/ml 90% killing [15]: 12.5 µg/mL
- MBC = μg/ml 99.9% killing [15]: 50 µg/mL
- LD 90 = μg/ml 90% killing [16]: 25 µg/mL
- MBC = μg/ml 99.9% killing [16]: 50 µg/mL
- LD 90 = μg/ml 90% killing [17]: 100 µg/mL
- MBC = μg/ml 99.9% killing [17]: >100 µg/mL
- LD 90 = μg/ml 90% killing [18]: 50 µg/mL
- MBC = μg/ml 99.9% killing [18]: 100 µg/mL
- LD 90 = μg/ml 90% killing [19]: 6.25 µg/mL
- MBC = μg/ml 99.9% killing [19]: 25 µg/mL
- LD 90 = μg/ml 90% killing [20]: 12.5 µg/mL
- MBC = μg/ml 99.9% killing [20]: 12.5 µg/mL
- LD 90 = μg/ml 90% killing [21]: 6.25 µg/mL
- MBC = μg/ml 99.9% killing [21]: 50 µg/mL
- LD 90 = μg/ml 90% killing [22]: 25 µg/mL
- MBC = μg/ml 99.9% killing [22]: 100 µg/mL
- LD 90 = μg/ml 90% killing [23]: 100 µg/mL
- MBC = μg/ml 99.9% killing [23]: 100 µg/mL
- LD 90 = μg/ml 90% killing [24]: 0.78 µg/mL
- MBC = μg/ml 99.9% killing [24]: 12.5 µg/mL
- LD 90 = μg/ml 90% killing [25]: 12.5 µg/mL
- MBC = μg/ml 99.9% killing [25]: 25 µg/mL
- LD 90 = μg/ml 90% killing [26]: 50 µg/mL
- MBC = μg/ml 99.9% killing [26]: >100 µg/mL
